# US12448358B2, “Inhibitors of protein arginine deiminase 1 and methods of preparation and use thereof” (University of Massachusetts, priority 2019, dated 2025)
# Read-outs that look alike come from different tables or passages of the source.
# How the values were obtained:
# PAD1 [1] = biological target: T1, PAD1 (Homo sapiens, UniProt Q9ULC6); test: Inactivation kinetics of PAD1 (COLDER citrulline assay); type: biochemical; settings: for Ki / kinact/KI / kinact: PAD1; for Ki: concentration of inhibitor that affords half-maximal inactivation; for kinact/KI: marks: * nonlinear fit of kobs versus [I], ‡ linear fit, † single kobs; for Fold PAD selectivity: PAD1 over the other PADs, bracketed value under kinact/KI
# T1 construct: made in house
# T1 sequence (Q9ULC6 1-663): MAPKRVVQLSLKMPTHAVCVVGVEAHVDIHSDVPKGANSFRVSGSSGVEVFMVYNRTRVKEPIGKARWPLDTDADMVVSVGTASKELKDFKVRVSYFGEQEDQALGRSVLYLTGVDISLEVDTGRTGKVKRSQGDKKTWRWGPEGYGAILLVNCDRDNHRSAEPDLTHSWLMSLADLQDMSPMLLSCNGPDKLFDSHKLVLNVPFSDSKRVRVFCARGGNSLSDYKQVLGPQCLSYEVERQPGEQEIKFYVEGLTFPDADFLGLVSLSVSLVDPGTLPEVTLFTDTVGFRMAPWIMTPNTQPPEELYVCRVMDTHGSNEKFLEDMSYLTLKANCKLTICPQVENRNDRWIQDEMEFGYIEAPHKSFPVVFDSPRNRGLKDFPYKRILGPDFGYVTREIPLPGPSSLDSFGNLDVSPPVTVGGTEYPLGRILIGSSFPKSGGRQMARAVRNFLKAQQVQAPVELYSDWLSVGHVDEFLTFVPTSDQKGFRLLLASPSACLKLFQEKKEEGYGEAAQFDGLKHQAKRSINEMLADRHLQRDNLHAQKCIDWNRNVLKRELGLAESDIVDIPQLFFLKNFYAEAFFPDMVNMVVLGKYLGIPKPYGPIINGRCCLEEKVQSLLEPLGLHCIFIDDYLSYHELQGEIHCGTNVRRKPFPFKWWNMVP
# Experimental: (§1) Inactivation kinetics. […] After 15 min, reactions were quenched with liquid nitrogen and the production of citrulline was quantified using the COLDER assay. (Kearney, et al. Biochemistry 2005, 44, 10570-10582; Knipp, et al. Anal. Biochem. 2000, 286, 257-264.) The time-dependence of PAD inhibition was fit to the following equation 1, […] (1), using Grafit, version 5.0.11, where v is velocity, ν0 is initial velocity, k (or kobs is the pseudo-first-order rate constant of inactivation, and t is time. Upon reaching saturation, the concentration dependence of kobs was fit to equation 2, kobs=kinact[I]/(KI+[I]), (2), using Grafit, version 5.0.11, where kinact is the maximal rate of inactivation, KI is the concentration of inhibitor that affords half-maximal inactivation, and [I] is the concentration of inhibitor. When kobs with [I] varied linearly, kinact/KI was determined from the slope of the line. All the experiments were performed at least in duplicate.
# PAD4 = biological target: T2, PAD4 (Homo sapiens, UniProt Q9UM07); test: Inactivation kinetics of PAD4 (COLDER citrulline assay); type: biochemical; settings: for Fold PAD selectivity: bracketed value under kinact/KI; for kinact/KI: marks: * nonlinear fit of kobs versus [I], ‡ linear fit, † single kobs
# T2 construct: made in house
# T2 sequence (Q9UM07 whole entry): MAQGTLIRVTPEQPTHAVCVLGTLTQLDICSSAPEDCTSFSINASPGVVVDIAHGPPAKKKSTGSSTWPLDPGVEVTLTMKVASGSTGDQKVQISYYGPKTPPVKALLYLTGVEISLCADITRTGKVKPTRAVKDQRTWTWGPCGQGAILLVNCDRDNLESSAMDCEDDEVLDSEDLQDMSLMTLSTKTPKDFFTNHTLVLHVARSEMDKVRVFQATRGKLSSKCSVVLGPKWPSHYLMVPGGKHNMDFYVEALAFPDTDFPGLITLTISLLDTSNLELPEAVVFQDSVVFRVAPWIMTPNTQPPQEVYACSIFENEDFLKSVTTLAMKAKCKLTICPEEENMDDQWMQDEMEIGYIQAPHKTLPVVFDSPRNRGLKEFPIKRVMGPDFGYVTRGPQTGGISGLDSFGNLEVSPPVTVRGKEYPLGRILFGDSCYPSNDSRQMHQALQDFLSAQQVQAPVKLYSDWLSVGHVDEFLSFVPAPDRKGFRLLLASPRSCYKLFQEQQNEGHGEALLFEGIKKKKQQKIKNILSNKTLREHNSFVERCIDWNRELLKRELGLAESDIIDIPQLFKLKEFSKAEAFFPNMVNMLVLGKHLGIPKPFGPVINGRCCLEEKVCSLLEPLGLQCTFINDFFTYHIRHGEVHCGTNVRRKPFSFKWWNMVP
# Experimental: as §1
# PAD2 = biological target: T3, PAD2 (Homo sapiens, UniProt Q9Y2J8); test: Inactivation kinetics of PAD2 (COLDER citrulline assay); type: biochemical; settings: for Fold PAD selectivity: bracketed value under kinact/KI; for kinact/KI: marks: * nonlinear fit of kobs versus [I], ‡ linear fit, † single kobs
# T3 construct: made in house
# T3 sequence (Q9Y2J8 whole entry): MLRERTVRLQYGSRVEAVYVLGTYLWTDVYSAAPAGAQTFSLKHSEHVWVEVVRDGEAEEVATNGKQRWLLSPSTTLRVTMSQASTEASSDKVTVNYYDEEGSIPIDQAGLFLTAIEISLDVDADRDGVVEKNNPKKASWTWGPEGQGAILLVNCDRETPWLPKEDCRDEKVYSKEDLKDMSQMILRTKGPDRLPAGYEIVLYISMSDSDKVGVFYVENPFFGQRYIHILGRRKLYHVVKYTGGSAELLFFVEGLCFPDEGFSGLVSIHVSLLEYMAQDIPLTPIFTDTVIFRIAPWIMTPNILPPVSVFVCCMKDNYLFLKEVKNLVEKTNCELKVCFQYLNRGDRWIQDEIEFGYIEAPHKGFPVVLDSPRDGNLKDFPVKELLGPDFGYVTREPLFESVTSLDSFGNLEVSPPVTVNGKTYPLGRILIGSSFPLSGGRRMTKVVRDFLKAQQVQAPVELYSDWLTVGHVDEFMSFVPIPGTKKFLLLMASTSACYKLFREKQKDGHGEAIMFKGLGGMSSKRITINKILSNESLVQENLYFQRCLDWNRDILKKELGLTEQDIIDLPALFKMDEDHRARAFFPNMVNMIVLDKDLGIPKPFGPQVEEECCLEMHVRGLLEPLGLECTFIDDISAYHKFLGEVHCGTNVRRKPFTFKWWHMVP
# Experimental: as §1
# PAD3 = biological target: T4, PAD3 (Homo sapiens, UniProt Q9ULW8); test: Inactivation kinetics of PAD3 (COLDER citrulline assay); type: biochemical; settings: for Fold PAD selectivity: bracketed value under kinact/KI; for kinact/KI: marks: * nonlinear fit of kobs versus [I], ‡ linear fit, † single kobs
# T4 construct: made in house
# T4 sequence (Q9ULW8 1-664): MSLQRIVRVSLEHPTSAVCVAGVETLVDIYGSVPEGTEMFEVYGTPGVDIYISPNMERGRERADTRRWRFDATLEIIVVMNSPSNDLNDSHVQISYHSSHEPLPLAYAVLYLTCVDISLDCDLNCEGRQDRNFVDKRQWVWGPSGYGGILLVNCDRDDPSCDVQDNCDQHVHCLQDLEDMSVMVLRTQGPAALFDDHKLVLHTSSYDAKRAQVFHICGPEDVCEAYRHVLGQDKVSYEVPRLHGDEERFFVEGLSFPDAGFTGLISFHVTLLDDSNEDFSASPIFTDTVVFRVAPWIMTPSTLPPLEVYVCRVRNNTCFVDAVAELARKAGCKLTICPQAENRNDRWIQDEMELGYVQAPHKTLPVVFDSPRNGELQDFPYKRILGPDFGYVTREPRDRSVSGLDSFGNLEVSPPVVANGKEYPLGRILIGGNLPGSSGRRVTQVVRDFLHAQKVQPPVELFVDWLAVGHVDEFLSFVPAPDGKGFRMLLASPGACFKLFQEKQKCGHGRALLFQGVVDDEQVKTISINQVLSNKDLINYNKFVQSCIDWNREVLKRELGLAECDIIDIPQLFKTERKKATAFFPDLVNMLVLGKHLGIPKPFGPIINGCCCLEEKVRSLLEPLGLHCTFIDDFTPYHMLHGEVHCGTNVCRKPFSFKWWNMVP
# Experimental: as §1
# PAD1 [2] = biological target: T1, PAD1; test: Histone H3 citrullination in HEK293TPAD1 cells; type: cell-based; settings: 1 mM CaCl2, 5 μM ionomycin, 3 h, read-out: EC50 of inhibition of histone H3 citrullination
# Experimental: The final concentration of DMSO in each well was 1%. […] All the experiments were performed at least in duplicate.
# [3] = read-out: kinact/KI (converted)
Structure (SMILES),Ki (PAD1 [1]),kinact/KI (PAD1 [1]; [3]),kinact (PAD1 [1]; read-out: kinact (converted)),Fold PAD selectivity (PAD1 [1]),Fold PAD selectivity (PAD4),kinact/KI (PAD4; [3]),Fold PAD selectivity (PAD2),kinact/KI (PAD2; [3]),Fold PAD selectivity (PAD3),kinact/KI (PAD3; [3]),EC50 (PAD1 [2]),kinact (PAD1 [1]),kinact/KI (PAD1 [1]),kinact/KI (PAD4),kinact/KI (PAD2),kinact/KI (PAD3)
N=C(CF)NCCC[C@H](NC(=O)c1cc(I)cc(I)c1O)c1nc2ccccc2[nH]1 [Compound 1],12.5 µM,173 M⁻¹ s⁻¹,0.00217 s⁻¹,74 fold,[2] fold,4.5 M⁻¹ s⁻¹,[1] fold,2.33 M⁻¹ s⁻¹,[1] fold,3.33 M⁻¹ s⁻¹,14.5 µM,,,,,
N=C(CF)NCCC[C@H](NC(=O)c1cc(I)c(F)c(I)c1O)c1nc2ccccc2[nH]1 [Compound 19],30.2 µM,221 M⁻¹ s⁻¹,0.00667 s⁻¹,44 fold,[1] fold,5 M⁻¹ s⁻¹,[1] fold,5 M⁻¹ s⁻¹,[2] fold,11.7 M⁻¹ s⁻¹,31.8 µM,,,,,
C#Cc1c(I)cc(C(=O)N[C@@H](CCCNC(=N)CF)c2nc3ccccc3[nH]2)c(O)c1I [Compound 21],69.2 µM,,,,[2] fold,,[1] fold,,[2] fold,,,0.00517 s⁻¹,4480 ± 200* M^−1min^−1,220 ± 30^† M^−1min^−1,130 ± 30^† M^−1min^−1,310 ± 80^† M^−1min^−1
